Measured values published in US11185527B2, “Methods and compositions relating to steroid hormone receptor-dependent cancers” (Wayne State University, priority 2017, dated 2021).

Tests used:
Full length human AR = target: T1, Full length human AR (Homo sapiens, UniProt P10275); test: Surface plasmon resonance, compound (analyte) binding to immobilized AR; details: SPR, compound as analyte
T1 construct: Full length human AR expressed in insect cells; purchased Abcam (Cambridge Mass.) ab82609; host or cells: insect cells
T1 sequence (P10275 1-920): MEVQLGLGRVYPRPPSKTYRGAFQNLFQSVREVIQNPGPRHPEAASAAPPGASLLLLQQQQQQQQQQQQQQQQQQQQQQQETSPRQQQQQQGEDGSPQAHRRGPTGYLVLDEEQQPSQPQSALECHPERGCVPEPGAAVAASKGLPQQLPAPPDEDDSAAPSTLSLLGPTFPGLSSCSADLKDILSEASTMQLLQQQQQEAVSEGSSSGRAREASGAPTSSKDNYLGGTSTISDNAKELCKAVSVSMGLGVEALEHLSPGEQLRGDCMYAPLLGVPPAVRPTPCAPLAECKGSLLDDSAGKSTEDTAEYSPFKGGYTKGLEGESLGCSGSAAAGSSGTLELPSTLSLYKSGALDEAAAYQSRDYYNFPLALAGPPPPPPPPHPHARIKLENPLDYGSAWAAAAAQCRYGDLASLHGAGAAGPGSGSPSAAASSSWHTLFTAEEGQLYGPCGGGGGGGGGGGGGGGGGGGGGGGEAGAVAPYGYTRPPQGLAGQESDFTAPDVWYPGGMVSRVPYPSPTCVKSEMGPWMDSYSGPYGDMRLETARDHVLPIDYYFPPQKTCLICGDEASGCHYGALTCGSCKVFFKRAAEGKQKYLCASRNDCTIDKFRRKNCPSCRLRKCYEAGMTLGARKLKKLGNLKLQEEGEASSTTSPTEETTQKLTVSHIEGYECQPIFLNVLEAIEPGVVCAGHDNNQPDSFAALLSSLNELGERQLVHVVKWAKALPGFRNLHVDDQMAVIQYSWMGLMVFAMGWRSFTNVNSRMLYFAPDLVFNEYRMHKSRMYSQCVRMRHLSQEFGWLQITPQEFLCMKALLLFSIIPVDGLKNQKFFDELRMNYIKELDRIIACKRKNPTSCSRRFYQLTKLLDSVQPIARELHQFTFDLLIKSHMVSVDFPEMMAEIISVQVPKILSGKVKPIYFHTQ
Procedure: FIG. 2A is a graph showing surface plasmon resonance (SPR) kinetic curves for quantitative analyses of KCI807 binding to AR.
The proteins were eluted with 200 mM imidazole and dialysed against […], pH 7.9 containing 10% glycerol, 20 mM KCl, 2 mM MgCl2, 0.2 mM EDTA, 0.5 mM benzamidine and 0.5 mM DTT.
Amine Coupling Kit, CM5 sensor chip and HBS-N buffer (GE Healthcare) were used for surface plasmon resonance (SPR) analysis. The rate and equilibrium binding constants of the interaction of AR with KCI807 was determined using Biacore 3000 (Biacore, Piscataway, N.J.). […] The immobilization involved activation of carboxymethyl groups on a dextran-coated chip by reaction with N-hydroxysuccinimide, followed by covalent bonding of the ligand (AR) to the chip surface via amide linkages. Reference surfaces were prepared in the same manner but blocked with ethanolamine and thus contained no ligand. […] The interaction (response units, RU) between analyte and ligand was recorded as the ligand RU minus the reference RU. Kinetic values were determined using BIAevaluation software (Biacore), and the data were fitted with the model showing closest match, according to methods described in Drescher DG et al., Methods Mol. Biol., (Clifton, N. J.). […] A 1:1 Langmuir binding model was generally selected, in which all the sensorgrams representing the different analyte concentrations were fitted simultaneously with the wide window of association and dissociation phases. Individual concentration curves were also evaluated to confirm the fitting data. The equilibrium dissociation constant (Kd) was calculated by kd=koff/kon. In all cases, baseline was established in the presence of the vehicle used for the compounds (DMSO) appropriately diluted in BBS-N buffer.

[1] = Body weight and condition of mice in the 22Rv1 xenograft study; details: 22Rv1 study

Structure (SMILES)	koff (Full length human AR)	kon (Full length human AR)	Kd (Full length human AR; kd=koff/kon, read-out: kd (dissociation constant))	% body weight lost/gained ([1]; Day 0 after tumor implantation)	% body weight lost/gained ([1]; Day 6 after tumor implantation)	% body weight lost/gained ([1]; Day 11 after tumor implantation)	% body weight lost/gained ([1]; Day 14 after tumor implantation)	% body weight lost/gained ([1]; Day 17 after tumor implantation)	% body weight lost/gained ([1]; Day 20 after tumor implantation)	% body weight lost/gained ([1]; Day 24 after tumor implantation)	% body weight lost/gained ([1]; Day 25 after tumor implantation)
O=c1cc(-c2cccc(O)c2)oc2cccc(O)c12 [KCI807, 5,3′-dihydroxyflavone]	0.00254 s⁻¹	36700 M⁻¹ s⁻¹	69.2 nM	–	–	–	–	–	–	–	–
CNC(=O)c1ccc(N2C(=S)N(c3ccc(C#N)c(C(F)(F)F)c3)C(=O)C2(C)C)cc1F [enzalutamide]	–	–	–	0%	+3.7%	+5.5%	+3.7%	+4.6%	+4.6%	+4.6%	+3.7%
